According to ChEMBL document CHEMBL1201862, “PubChem BioAssay data set” (2004):
Activity calls are given as the source filed them.

Columns and labels:
[1] = biological target: T1, Histone-lysine N-methyltransferase NSD2 (Homo sapiens, UniProt O96028); format: biochemical
T1 sequence (O96028 whole entry): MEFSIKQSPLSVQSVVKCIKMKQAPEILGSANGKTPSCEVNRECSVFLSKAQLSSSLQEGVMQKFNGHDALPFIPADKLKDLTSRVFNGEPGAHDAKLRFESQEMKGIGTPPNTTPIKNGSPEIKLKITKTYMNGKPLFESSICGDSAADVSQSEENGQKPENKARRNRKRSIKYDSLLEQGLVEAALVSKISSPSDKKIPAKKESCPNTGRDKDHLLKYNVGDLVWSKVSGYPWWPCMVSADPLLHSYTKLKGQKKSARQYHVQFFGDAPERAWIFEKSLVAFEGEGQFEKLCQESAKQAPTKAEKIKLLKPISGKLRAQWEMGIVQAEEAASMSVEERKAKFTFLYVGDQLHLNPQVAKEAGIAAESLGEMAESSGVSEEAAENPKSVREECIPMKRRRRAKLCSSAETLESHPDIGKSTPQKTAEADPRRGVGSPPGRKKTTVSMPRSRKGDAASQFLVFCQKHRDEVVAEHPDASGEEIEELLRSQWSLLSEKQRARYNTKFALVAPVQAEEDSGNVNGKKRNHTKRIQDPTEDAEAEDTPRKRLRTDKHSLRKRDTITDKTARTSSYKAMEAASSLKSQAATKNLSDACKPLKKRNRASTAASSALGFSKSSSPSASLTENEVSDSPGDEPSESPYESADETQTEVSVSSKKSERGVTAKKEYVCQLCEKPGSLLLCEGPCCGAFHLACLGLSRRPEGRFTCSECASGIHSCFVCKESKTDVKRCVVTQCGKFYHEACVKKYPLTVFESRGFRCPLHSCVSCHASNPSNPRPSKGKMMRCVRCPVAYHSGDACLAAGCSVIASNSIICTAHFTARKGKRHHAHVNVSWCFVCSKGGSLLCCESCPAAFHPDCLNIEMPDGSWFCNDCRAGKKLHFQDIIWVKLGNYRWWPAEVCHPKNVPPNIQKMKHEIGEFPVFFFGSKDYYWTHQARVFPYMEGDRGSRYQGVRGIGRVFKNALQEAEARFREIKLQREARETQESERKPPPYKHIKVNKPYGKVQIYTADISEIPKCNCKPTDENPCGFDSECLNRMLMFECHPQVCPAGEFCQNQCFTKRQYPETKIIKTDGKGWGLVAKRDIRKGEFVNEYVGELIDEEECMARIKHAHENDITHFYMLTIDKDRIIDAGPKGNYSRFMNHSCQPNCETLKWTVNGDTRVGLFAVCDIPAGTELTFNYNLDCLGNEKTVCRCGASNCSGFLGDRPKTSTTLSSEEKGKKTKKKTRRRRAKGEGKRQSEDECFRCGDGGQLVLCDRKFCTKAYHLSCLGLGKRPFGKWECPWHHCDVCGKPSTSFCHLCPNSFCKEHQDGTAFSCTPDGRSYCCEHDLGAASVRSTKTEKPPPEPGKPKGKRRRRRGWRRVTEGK

[2] = biological target: Nonstructural protein 1 (Influenza A virus, UniProt Q194T2); format: functional, Influenza A virus (A/California/07/2009(H1N1))
Nonstructural protein 1, sequence (Q194T2 whole entry): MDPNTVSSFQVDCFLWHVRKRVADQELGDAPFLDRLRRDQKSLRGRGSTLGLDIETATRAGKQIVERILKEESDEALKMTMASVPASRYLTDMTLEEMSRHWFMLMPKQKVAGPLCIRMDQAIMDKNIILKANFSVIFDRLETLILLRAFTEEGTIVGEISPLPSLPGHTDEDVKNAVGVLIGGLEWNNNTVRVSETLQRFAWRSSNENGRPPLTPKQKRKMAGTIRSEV

Row | Compound | AC50 [1] | IC50 [2]
1 | COC(=O)c1ccc(-c2ccc(C(c3c(C)[nH][nH]c3=O)c3c(C)[nH][nH]c3=O)o2)cc1 | 17.8 µM (active) | 
2 | Oc1ccc(/C=N/NC(=S)Nc2cccnc2)c(O)c1O |  | 3.58 µM (active)
